{"source": "patent US20110257192A1", "about": "“COMPOUND FOR TREATMENT OF RESPIRATORY CONDITION OR DISEASE” (BIOTA SCIENTIFIC MANAGEMENT PTY LTD, priority 2010, published 2011)", "origin": "cited, not measured here", "details": "administered orally", "data": [{"smiles": "Cc1cc(CCCOc2c(C)cc(-c3noc(C(F)(F)F)n3)cc2C)on1", "note": "[pleconaril]", "values": [{"measurement": "effect on asthma exacerbation", "result": "did not have an effect on asthma exacerbation"}]}]}
